According to publication PMC6120666 (The EMBO Journal, 2018):

Target: T1, proteins of U2OS cell lysate (Homo sapiens, UniProt P09497)
T1 construct: Proteins enriched by c-ponatinib from U2OS cell lysate; endogenous in cells; host or cells: U2OS cell lysate
Test: Drug affinity chromatography with c-ponatinib and LC-MS/MS (ponatinib interactome)
Type: binding
Procedure, shortened: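 Proteins were identified by nano-UPLC–MS/MS after elution with formic acid and trypsin digestion. They were captured from U2OS lysate (2 mg protein per pulldown, NP-40 buffer) on amine-coupled NHS beads during a 2 h incubation at 4 °C.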

T1 sequence (P09497 whole entry): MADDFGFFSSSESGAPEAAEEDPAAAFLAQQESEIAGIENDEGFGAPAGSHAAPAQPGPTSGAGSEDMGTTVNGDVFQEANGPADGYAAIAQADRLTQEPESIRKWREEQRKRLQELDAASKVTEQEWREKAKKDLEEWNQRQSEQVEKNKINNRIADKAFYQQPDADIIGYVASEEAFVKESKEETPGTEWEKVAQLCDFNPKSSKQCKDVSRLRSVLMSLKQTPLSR

Structure (SMILES) | Average LFQ intensity (captured protein CLTB, Rank 157) | Average LFQ PON_WT (CLTB, Clathrin light chain B)
Cc1ccc(C(=O)Nc2ccc(CN3CCN(CCCN)CC3)c(C(F)(F)F)c2)cc1C#Cc1cnc2cccnn12 [c-ponatinib, reference compound] | 22.5074 | –
Cc1ccc(C(=O)Nc2ccc(CN3CCN(C)CC3)c(C(F)(F)F)c2)cc1C#Cc1cnc2cccnn12 [PON] | – | 22.5074
